Assay results as given in patent US20210267959A1, “METHODS OF TREATING RENAL DISEASE” (The Regents of the University of California, priority 2018, published 2021).

Experiments:
[1] = test system: mouse model of chronic kidney disease (CKD) via 5/6 nephrectomy; assay: JZL184 in mouse 5/6 nephrectomy model of chronic kidney disease; assay type: in vivo, Male C57BL/6J mice; conditions: CKD mice, JZL184 4 mg/kg, 4 weeks; FIG. 12
Experimental: (§1) We used a well-known experimental tool, JZL184, which inhibits the enzyme responsible for breakdown of 2-AG, monoacylglycerol lipase (MGL), to determine the effect of increased tissue 2-AG levels on markers of renal function in animal models of chronic kidney disease (CKD). JZL184 was administered intraperitoneally in a well-established rat and mouse model of chronic kidney disease (CKD) (FIG. 8).
(§2) Therefore, we induced CKD in animals via 5/6 nephrectomy (surgical removal of one entire kidney in addition to 2/3 of the contralateral kidney which results in significant renal mass reduction and development of kidney failure over 6-10 weeks) in two separate studies (one set in rats and one set in mice).
We performed a similar experiment in mice. Male C57BL/6J mice underwent sham surgery versus 5/6 nephrectomy to induce CKD and two weeks after surgery were randomized to vehicle versus JZL184 therapy (4 mg/kg). Treated animals received JZL184 (4 mg/kg) for an additional 4 weeks (FIG. 11).

[2] = test system: rat model of chronic kidney disease (CKD) via 5/6 nephrectomy; assay: JZL184 in rat 5/6 nephrectomy model of chronic kidney disease; assay type: in vivo, male Sprague-Dawley rats; conditions: CKD rats, 4 weeks
Experimental: as §1, §2
In the rats, male Sprague-Dawley rats underwent 5/6 nephrectomy versus sham surgery and after two weeks were randomized to 4 groups: sham surgery, CKD treated with vehicle, CKD treated with 4 mg/kg JZL184 and CKD treated with 8 mg/kg JZL184 (n=6-8). During and at the end of the study, non-invasive blood pressure measurements were performed using tail-cuff plethysmography. Before sacrifice, a 24-hour urine sample was collected and evaluated for urine protein and creatinine to assess for degree of proteinuria (degree of proteinuria is a marker of glomerular and interstitial kidney damage in advanced CKD). After sacrifice, serum was obtained to assess for renal function. […] This was associated reduced systolic blood pressure and decreased rate of urine protein excretion.

[3] = test system: monoacylglycerol lipase (MGL); conditions: cited from earlier work
[4] = JZL184 4 or 8 mg/kg intraperitoneal, FIG. 9

O=C(Oc1ccc([N+](=O)[O-])cc1)N1CCC(C(O)(c2ccc3c(c2)OCO3)c2ccc3c(c2)OCO3)CC1 [JZL184, 4-nitrophenyl-4-(dibenzo[d][1,3]dioxol-5-yl(hydroxy)methyl)piperidine-1-carboxylate]
blood pressure [1]: significant improvement | serum BUN concentration [1]: reduced | urinary protein excretion [1]: decreased | cerebral cortex 2-AG concentration [2, 4]: significant increase | renal 2-AG concentration [2, 4]: significant increase | rate of urine protein excretion ([2]; JZL184 4 or 8 mg/kg, 24-hour urine, FIG. 10): decreased | renal function (serum) ([2]; JZL184 4 or 8 mg/kg, FIG. 10): signal toward improved renal function | systolic blood pressure ([2]; JZL184 4 or 8 mg/kg, tail-cuff plethysmography, FIG. 10): reduced | overt symptoms of endocannabinoid activation in the central nervous system ([3]; 4 mg/kg in mice and 4-8 mg/kg in rats, have been shown (prior work)): without causing overt symptoms | brain and kidney levels of 2-AG ([3]; has been shown (prior work)): significantly increase
